Test results as given in patent publication US20090264492A1, “PHARMACEUTICAL COMPOSITION FOR THE TREATMENT OF A FUNGAL SKIN DISORDER AND A METHOD FOR THE PREPARATION THEREOF” (Stichting Voor de Technische Wetenschappen, priority 2006, published 2009).

How the values were obtained:
[1] = test system: T. rubrum; test: PDT of T. rubrum on human stratum corneum (ex-vivo model), fungicidal effect; type: cell-based, Trichophyton rubrum; conditions: acidic pH versus pH 7.4
Method: A polycarbonate membrane filter, 25 mm in diameter and a pore size of 2 μm (Whatman, Breda, The Netherlands) was placed in the central part of a 3 cm culture dish (Greiner, Alphen aan den Rijn, The Netherlands) filled with 5 ml of Malt Extract Agar (MEA). A circular piece of human stratum corneum (SC) with a diameter of 1 cm was subsequently placed on the membrane filter and both were gently brushed with a paintbrush dipped in 70% ethanol. A microconidia suspension isolated from Trichphyton rubrum (CBS nr. 304.60 obtained from Centraal Bureau voor Schimmelcultures, Utrecht, The Netherlands, and prepared as described by Smijs G. M. T. et al (2004) in “Photodynamic treatment of the dermatophyte Trichophyton Rubrum and its microconidia with porphyrin sensitizers. PhotoChemistry and PhotoBiology, 80, 197 - 202”) was diluted to 1000 CFU/ml and 15 μl was inoculated on the circular sheet of human SC. The dish was placed in an incubator at 28° C. and at 17 hours after spore inoculation photodynamic treatment (PDT) was applied.
At 17 hours after spore inoculation, the membrane filter with SC containing spore inoculates was transported from the MEA dish to a 3 cm culture dish filled with 1035 μl incubation medium. The incubation medium contained 1 ml of distilled water with an adjusted pH (3.5, 4.5, 5.2, or 7.4) and 35 μl of a Sylsens B stock solution (Buchem, Apeldoorn, the Nederland) . To optimize the contact of the inoculates with the incubation medium, the membrane filter with the SC was turned upside down during the incubation period of 2 hours. The incubation was performed under continuous shaking conditions. Shortly before the illumination period the membrane filter containing the SC was turned back (surface SC now faces the lamp). In all cases, the illumination time was 1 hour using a red light irradiance of 30 mW/cm^2. This corresponds to a light dose of 108 J/cm^2. After the illumination the membrane filter with the SC were transported to a fresh MEA dish, placed in a 28° C. incubator and fungal growth was followed for several weeks. Dark controls were included, i.e. the same procedure was carried out except that the inoculated microconidia on human skin were treated with solvent and/or photosensitizer in the dark. In the light controls, the microconidia were treated with solvent (only) in the presence of light. The efficacy of the treatment was expressed as a relative frequency of complete inactivation (killing) of fungal growth detected at day 8 after spore inoculation. This was assessed microscopically with the use of a Zeiss Axiovert 25 (Germany). […] The treatment effect was followed for a period of several months. Every experiment contained 4 to 6 duplicates of all conditions and the experiments were repeated 3 times at least.
PDT of T. rubrum 17 hours after spore inoculation using the ex-vivo model, different concentrations of Sylsens B and a different pH (water medium). The numbers indicate the relative frequency of the fungicidal effect^1. Numbers between brackets give the number of tests performed.
The experiment with Sylsens B was repeated more extensively, for a longer period of time and with more samples. More specifically, the photodynamic efficacy of Sylsens B towards T. rubrum was tested at 17 (FIG. 2a), 48 (FIG. 2b) and 72 hours (FIG. 2c) after spore inoculation on human SC, at the following incubation pH values: Filled diamonds: pH 3.5, filled squares: pH 5.2 and filled triangles: pH 7.4.

[2] = test system: the fungus cultivated in suspension; test: binding of Sylsens B to the fungus cultivated in suspension / photodynamic effect with competing cations; type: cell-based, T. rubrum; conditions: Alcian Blue 160 μM versus Sylsens B 160 μM
Method: In the above experiments, deuteroporphyrin monomethylether (DP mme), an anionic porphyrin, was used as a control. […] The effect of calcium-ions was investigated by determining the photodynamic effect in the presence of 5 mM CaCl2 at pH 5.2. […] So, PDT may even be used to inactivate (kill) the growing fungus if measures are taken to prevent naturally present calcium from interfering with the treatment, in particular by using a chelating compound such as EDTA.

| Compound | effect of acidic pH on photodynamic activity [1] | competition for binding to the fungus [2] |
| --- | --- | --- |
| C[n+]1ccc(-c2c3nc(c(-c4cc[n+](C)cc4)c4ccc([nH]4)c(-c4cc[n+](C)cc4)c4nc(c(-c5cc[n+](C)cc5)c5ccc2[nH]5)C=C4)C=C3)cc1.[Cl-].[Cl-].[Cl-].[Cl-] [meso-tetra(N-methyl-4-pyridyl)porphyrin tetrachloride, reference compound] | improved activity at acidic pH, albeit to a lesser extent than Sylsens B |  |
| deuteroporphyrin monomethylether [DP mme, reference compound] | failed to display the observed pH effect |  |
| Alcian Blue [reference compound] |  | competed with Sylsens B |
